From patent publication US7157256B2, “Method for producing para-hydroxystyrene and other multifunctional aromatic compounds using two-phase extractive fermentation” (E. I. du Pont de Nemours and Company, priority 2003, dated 2007)
Where “and” joins values, the source holds several entries; their conditions need not be identical. Identical values can stand only once. Entries after “also recorded” stand apart in the source; their conditions may differ.

How the values were obtained:
[1] = P values obtained from Hansch et al. 1995; cited from earlier work
E. coli TY1 (DGL430) = assay: Toxicity testing of organic solvents toward E. coli using agar cultures; format: cell-based; settings: for % CFU 1 Sample 2 / % CFU Sample 1 / % CFU Sample 3: 5 mL solvent on inoculated LB agar plate, 30° C., CFU as percentage of control plates; for toxicity to E. coli in words: agar plate study
Experimental: This study was done using E. coli TY1 (DGL430), as described in Example 1. A stock culture of this strain was prepared in 50% glycerol and stored at −20° C. This stock culture (10 μL) was used to inoculate a 14 mL Falcon™ tube (BD Biosciences, Bedford, Mass.) containing 5 mL of LB medium, consisting of Bacto-tryptone (10 g/L), Bacto-yeast extract (5 g/L), and NaCL (10 g/L) adjusted to pH 7.5 with NaOH, and supplemented with tetracycline (10 μg/mL). This culture was incubated at 34° C. and 250 rpm overnight in an incubator shaker until an OD600 of between 1.0 and 2.0 was obtained. Dilutions of this culture were spread onto LB agar plates. The appropriate dilution was determined by experimentation to obtain between 100 to 200 colonies per plate. The solvents (5 mL) were filtered through a 0.2 μm filter onto the inoculated agar plates. All the solvents were tested in triplicate.
The plates were incubated overnight at 30° C. in a vented incubator located in a chemical fume hood. The colonies formed were counted after 24 and 48 h. The colony forming units (CFUs) obtained with each solvent were compared to those of the control plates and plotted in FIG. 1 as a percentage versus the log P value for the solvent (P values obtained from Hansch et al., Exploring QSAR: Hydrophobic, Electronic and Steric Constants, American Chemical Society, Washington, D.C., 1995). […] The error bars in the figure represent the range of the data. Cell growth on the agar medium was characterized by the presence of both distinct and non-distinct colony formations, which affected the precision of the colony counts. In the presence of some of the solvents tested, growth continued between 24 and 48 h, while with other solvents, no further growth was observed after 24 h.

[2] = Extraction of CA into organic phase, two-phase flask fermentation; format: physicochemical
Experimental: The strain used in this study was E. coli WWQ51.1, as described in Example 3. The conditions were similar to those described in Example 3. Eight test cultures were inoculated; six contained 20 mL of 2-undecanone, the other two contained 20 mL of 1-undecanol. A 10% w/v solution of pHS in propylene glycol (0.5 mL), obtained from Sigma-Aldrich, Milwaukee, Wis., was added to two of the cultures containing 2-undecanone, as specified in Table 7.
The cultures were incubated in 250 mL baffled flasks at 35° C. and 300 rpm for 24 h in an incubator shaker. After this time, a sample of the aqueous phase was withdrawn and the pH, OD550, and the concentration of the fermentation products were measured, as described supra. The organic phase was also sampled and the concentration of CA and pHS were determined using HPLC, as described supra.
In this study, the pH decreased to low values and a significant amount of CA was extracted into both organic solvents tested. The amount of pHS produced was low, probably because of its poor stability at low pH. As shown by the data in Table 9, the amount of CA extracted into the organic phase was very dependent on the pH of the medium. This pH dependence results because the fully protonated species is the form extracted into the organic phase. The ionized acid form is very water-soluble and is not extracted into the organic phase. Therefore, the extractive fermentation of acidic compounds such as CA and pHCA is favored at low pH, where the acid exists primarily in the unionized form.

E. coli strain BNT511 = assay: Effect of organic solvents on the growth of E. coli, shake flasks; format: cell-based; settings: for OD 550: 10 mL solvent in 30 mL medium
Text: E. coli strain BNT511 was used in this study. This strain is a tyrosine overproducing strain derived from E. coli strain NST 74 (ATCC No. 31884), which was obtained from the American Type Culture Collection (ATCC) (Manassas, Va.). Strain BNT511 is deposited with the American Type Culture Collection under the terms of the Budapest Treaty on the International Recognition of the Deposit of Microorganisms for the Purposes of Patent Procedure and has been assigned a depository designation of PTA-4314. E. coli strain BNT511 was obtained as follows. A culture of E. coli strain NST 74 was grown overnight at 37° C. in three milliliters of M9 medium, prepared as follows. A solution of M9 salts buffer consisting of KH2PO4 (3 g/L), Na2HPO4 (6 g/L), NaCl (0.5 g/L), and NH4Cl (1 g/L), was prepared and the pH was adjusted to 7.4. This M9 salts buffer was autoclaved and then the following solutions, each sterilized separately by filtration (glucose) or autoclaving, were added to give the concentrations given in parentheses MgSO4 (0.24 g/L), glucose (0.2%), CaCl2 (0.011 g/L), and yeast extract (1 g/L). After growth, the culture was diluted by a factor of 10^3 to 10^6 in M9 salts buffer. Then, 100 μL of each dilution was plated on M9+1% glucose agar containing […] of 3-fluorotyrosine and the plates were incubated at 37° C. After 18 h, growth was observed only on the plate not containing 3-fluorotyrosine. Plates containing 3-fluorotyrosine were incubated an additional 24 h, after which time, several isolates were identified. One NST 74-derived isolate was obtained from each of the 150 and 450 mg/mL 3-fluorotyrosine plates. Individual isolates were propagated on M9+1% glucose agar containing 0, 50, 150, or 250 mg/mL 3-fluorotyrosine. One of these two isolates was designated as BNT511.
E. coli strain BNT511 was grown in a medium containing KH2PO4 (0.15 g/L), Na2HPO4 (0.35 g/L), (NH4)2 SO4 (3 g/L), MgSO4.7H2O (0.3 g/L), yeast extract (0.5 g/L), MOPS (15.6 g/L), and glucose (10 g/L), adjusted to pH 6.8. A seed culture, taken from an active culture that grew in a fermentor and was diluted to 0.3 OD at 550 nm, was used to inoculate 30 mL of culture medium in 250 mL baffled flasks. Ten milliliters of the solvent to be tested, either 1-undecanol (98%, obtained from Aldrich) or 2-undecanone (98%, obtained from Aldrich), was added to the flask and the flasks were incubated at 35° C. and 300 rpm for 22 h in an incubator shaker. A flask without an organic solvent added served as the control. This experiment was run in duplicate. Samples of the aqueous culture media were removed at various times and the pH and the OD550 were measured. As shown by the results given in Table 2, the presence of the organic solvents tested had no significant effect on the growth of E. coli. However, the results obtained with 2-undecanone in these studies were not consistent. […] We believe that this variability was caused by variations in the purity of this solvent.

[3] = 2 h, 35° C., 300 rpm, duplicate flasks

Row | Compound | Log P [1] | % CFU 1 Sample 2 (E. coli TY1 (DGL430)) [%] | % CFU Sample 1 (E. coli TY1 (DGL430)) [%] | % CFU Sample 3 (E. coli TY1 (DGL430)) [%] | toxicity to E. coli in words (E. coli TY1 (DGL430)) | also measured
1 | CCCCCCCCC(C)=O [2-Decanone] | 3.39 | 0 | 0 | 0 | – | –
2 | CC(C)CCOCCC(C)C [Diisopentyl ether] | 3.96 | 39 | 13 | 0 | – | –
3 | CCCCCCCCCC(=O)OC [Methyl decanoate] | 4.41 | 109 | 73 | 44 | relatively nontoxic to E. coli | –
4 | CCCCC(=O)c1ccccc1 [1-Phenyl-1-pentanone] | 3.33 | 62 | 33 | 0 | – | –
5 | O=C(O)C=Cc1ccccc1 [CA, cinnamic acid] | – | – | – | – | – | CA Org/CA Aq ([2]; Flask 1, 2-undecanone 20 mL/flask, pH 5.38, 24 h): 3.55; CA Org/CA Aq ([2]; Flask 2, 2-undecanone, pH 4.5): 17.00; CA Org/CA Aq ([2]; Flask 3, 2-undecanone, pH 5.5): 1.43; CA Org/CA Aq ([2]; Flask 4, 2-undecanone, pH 5.4): 2.54; CA Org/CA Aq ([2]; Flask 5, 2-undecanone, pH 4.8): 8.08; CA Org/CA Aq ([2]; Flask 6, 2-undecanone, pH 5.7): 1.10; CA Org/CA Aq ([2]; Flask 7, 1-undecanol, pH 5.7): 2.10; CA Org/CA Aq ([2]; Flask 8, 1-undecanol, pH 5.71): 2.15
6 | CCCCCCCCCC(C)=O [2-undecanone] | 3.91 | 11 | 11 | 11 | significantly inhibit growth | growth inhibition / toxicity to E. coli of some lots (E. coli strain BNT511; 2-undecanone from some suppliers and lots, ascribed to impurities): found to inhibit growth; also recorded: toxic to E. coli due to impurities; OD 550 (E. coli strain BNT511; [3]): 1.004; OD 550 (E. coli strain BNT511; 4.2 h): 1.88; OD 550 (E. coli strain BNT511; 6 h): 6.3 and 6.28; OD 550 (E. coli strain BNT511; 22 h): 15.2 and 12.3
7 | CCCCCCCCCCCO [1-undecanol] | – | – | – | – | – | OD 550 (E. coli strain BNT511; [3]): 1.428 and 1.456; OD 550 (E. coli strain BNT511; 4.2 h): 1.96 and 2.14; OD 550 (E. coli strain BNT511; 6 h): 6.02 and 6.7; OD 550 (E. coli strain BNT511; 22 h): 19.1 and 15.7
8 | c1ccc(COCc2ccccc2)cc1 [Dibenzyl ether] | 3.1 | 5 | 1.5 | 0 | – | –
9 | CCCCCCCCCCCC(C)=O [2-Tridecanone] | 4.95 | 115 | 100 | 87 | relatively nontoxic to E. coli | –
10 | CCCOC(=O)c1ccccc1 [Propyl benzoate] | – | 26 | 9 | 0.9 | – | –
